Assay results as given in ChEMBL document CHEMBL1152688, “Bioorganic synthesis of a recombinant HIV-1 fusion inhibitor, SC35EK, with an N-terminal pyroglutamate capping group” (Bioorg Med Chem, 2009).
Non-standard residues stand in square brackets, D forms with d. Residues, ends and D or L forms follow the SMILES beside them. *: point of attachment. hSer(lactone) = O=C1OCC[C@@H]1N*; pGlu = O=C1CC[C@@H](C(=O)O)N1

Key:
Serum = test: Stability in mouse serum assessed as compound degradation by LC-MS analysis; type: ADME, cell-free
[1] = system: Human immunodeficiency virus 1; test: Antiviral activity against HIV1 NL4-3 infected in human HeLa cells expressing CD4/CCR5-LTR-beta-gal genes assessed as blockade of viral infection by X-gal staining based MAGI method; type: functional, organism-based; conditions: Human immunodeficiency virus 1, NL4-3, HeLa

Row | Molecule | Stability (Serum) | EC50 [1]
1 | Ac-WEEWDKKIEEYTKKIEELIKKSEEQQKKNEEELKK-NH2 | Stable | 0.5 nM
2 | H-WEEWDKKIEEYTKKIEELIKKSEEQQKKNEEELKK-OH | Unstable | 2.43 nM
3 | CC[C@H](C)[C@H](NC(=O)[C@H](CC(C)C)NC(=O)[C@H](CCC(=O)O)NC(=O)[C@H](CCC(=O)O)NC(=O)[C@@H](NC(=O)[C@H](CCCCN)NC(=O)[C@H](CCCCN)NC(=O)[C@@H](NC(=O)[C@H](Cc1ccc(O)cc1)NC(=O)[C@H](CCC(=O)O)NC(=O)[C@H](CCC(=O)O)NC(=O)[C@@H](NC(=O)[C@H](CCCCN)NC(=O)[C@H](CCCCN)NC(=O)[C@H](CC(=O)O)NC(=O)[C@H](Cc1c[nH]c2ccccc12)NC(=O)[C@H](CCC(=O)O)NC(=O)[C@H](CCC(=O)O)NC(=O)[C@H](Cc1c[nH]c2ccccc12)NC(=O)[C@@H]1CCC(=O)N1)[C@@H](C)CC)[C@@H](C)O)[C@@H](C)CC)C(=O)N[C@@H](CCCCN)C(=O)N[C@@H](CCCCN)C(=O)N[C@@H](CO)C(=O)N[C@@H](CCC(=O)O)C(=O)N[C@@H](CCC(=O)O)C(=O)N[C@@H](CCC(N)=O)C(=O)N[C@@H](CCC(N)=O)C(=O)N[C@@H](CCCCN)C(=O)N[C@@H](CCCCN)C(=O)N[C@@H](CC(N)=O)C(=O)N[C@@H](CCC(=O)O)C(=O)N[C@@H](CCC(=O)O)C(=O)N[C@@H](CCC(=O)O)C(=O)N[C@@H](CC(C)C)C(=O)N[C@@H](CCCCN)C(=O)N[C@@H](CCCCN)C(=O)N[C@H]1CCOC1=O ([pGlu]WEEWDKKIEEYTKKIEELIKKSEEQQKKNEEELKK-{hSer(lactone)}) | Stable | 0.57 nM
